From patent US20230405143A1, “TYROSINE-BASED ANTIBODY CONJUGATES” (Synaffix B.V., priority 2020, published 2023)

Test: stability of linker-payload under acidic sample work-up and analysis (MS / RP-HPLC)
Format: physicochemical
Details: note to FIG. 26
Experimental: Note: *BCN-HS-PEG2-va-PABC-PBD is not stable under the acidic conditions used in sample work-up and analysis. Therefore, some peak broadening is observed, so conversion was determined by the amount of starting material left.
Prior to RP-HPLC analysis, IgG (10 μL, 1 mg/mL in PBS pH 7.4) was added to 12.5 mM DTT, 100 mM TrisHCl pH 8.0 (40 μL) and incubated for 15 minutes at 37° C. The reaction was quenched by adding 49% acetonitrile, 49% water, 2% formic acid (50 μL). RP-HPLC analysis was performed on an Agilent 1100 series (Hewlett Packard). The sample (10 μL) was injected with 0.5 mL/min onto Bioresolve RP mAb 2.1*150 mm 2.7 μm (Waters) with a column temperature of 70° C. A linear gradient was applied in 16.8 minutes from 30 to 54% acetonitrile in 0.1% TFA and water.
Prior to mass spectral analysis, IgG was treated with IdeS, which allows analysis of the Fc/2 fragment. For analysis of the Fc/2 fragment, a solution of 20 μg (modified) IgG was incubated for 1 hour at 37° C. with IdeS/Fabricator™ (1.25 U/μL) in PBS pH 6.6 in a total volume of 10 μL. Samples were diluted to 80 μL followed by analysis electrospray ionization time-of-flight (ESI-TOF) on a JEOL AccuTOF. Deconvoluted spectra were obtained using Magtran software.

BCN-HS-PEG2-va-PABC-PBD
stability under the acidic conditions used in sample work-up and analysis: not stable
